The values below come from patent US7049331B2, “1,2,4-thiadiazole derivatives as melanocortin receptor modulators” (Ortho-McNeil Pharmaceutical, Inc., priority 2001, dated 2006).

Read-outs that look alike come from different tables or passages of the source.

For test [1], the target named is T1, melanocortin MC-4 receptor (Homo sapiens, UniProt P32245).
T1 construct: purchased Receptor Biology Inc
Nature of the test: MC-4 receptor binding (Filtration). The settings on record: Filtration; read-out: IC50 MC-4 (μM) (Filtration). As for the experimental part:
The procedures described above for the melanocortin MC-4 receptor were repeated for the melanocortin MC-3 receptor. Following the procedures described, representative compounds of the present invention were tested for binding in the MC-4 and/or MC-3 assay, as listed in Table 4.

The test system of test [2] is Hippocampal Cells. Briefly: Neurite Cell Outgrowth Assay, hippocampal cells. The format is cell-based. The settings on record: Rattus norvegicus; 50 nM; percent change over the vehicle response; NA = no change/not active. The source says:
(§1) Dissociated hippocampal and cortical cell cultures were established from embryonic day 18 rat fetuses as described by Mattson, M. P., Barger, S. W., Begley, J, and Mark, R. J., Methods Cell Biol., 1994, 46:[…]. Briefly, fetuses were removed via cesarean section from pregnant moms (Sprague-Dawley) and anesthetized with halothane according to the AVMA Panel on Euthanasia. Pups were decapitated and the brains were removed and placed in HEPES-buffered Hank's Balanced Salt solution (HBSS; Gibco). The hippocampi and cortices were dissected out and pooled according to tissue-type. Tissue was trypsinized for 15 min (1 mg/ml trypsin-HBSS; Worthington), rinsed with fresh HBSS, incubated in trypsin inhibitor (1 mg/ml; Sigma) for 5 min, rinsed again with fresh HBSS and then triturated in 1 ml fresh HBSS with a fire-polished glass pipette. Dissociated cells were seeded at 30,000 cells/well onto poly-D-lysine coated 96-well plates (Collaborative BioScience). Each well contained 100 μl of Eagle's Minimal Essential Media (MEM; Gibco) supplemented with 26 mM NaHCO3 (Sigma), 56 mM glucose (Sigma), 15 mM KCl (Sigma), 1 mM sodium pyruvate (Sigma), 1.1 mM L-glutamine (Sigma), 10% (v/v) heat-inactivated fetal bovine serum (Hyclone), and 0.001% gentamicin sulfate (Sigma) (pH 7.4). Cells were allowed to attach for 24 h in a humidified 37° C. 5% CO2 incubator before experimental treatment. The culture media was aspirated and exchanged with fresh media every 3 days.
(§2) Twenty-four hours after plating, cultures were treated with vehicle (PBS+0.1% BSA), alpha-melanocyte stimulating hormone (α-MSH) or test compound (diluted in DPBS). Each treatment condition was run in quadruplicate. On the third day in culture, the media was aspirated off and replaced with fresh media and test compound. At one week in culture, the cells were fixed with 10% phosphate-buffered formalin for 15 min, then rinsed with DPBS (Sigma) and placed in blocking serum for 30 min (horse serum; 1:50 dilution in DPBS; Vector Labs). The cultures were rinsed again with DPBS and then incubated in primary antibody for 2 hr (microtubule-associated protein-2 (MAP-2) is a selective marker for dendritic processes; anti-mouse monoclonal (Chemicon); 1:1000 dilution of MAP-2 in antibody diluent (Zymed)). Negative control wells were incubated in antibody diluent alone. Background signal was determined by blank wells (cell-free) incubated with or without antibody. Cultures were rinsed again with DPBS and then placed in fluorescein for 1 hr (FITC; anti-mouse IgG; rat adsorbed; 1:50 dilution in DPBS; Vector Labs). Cultures were rinsed a final time with DPBS and the plates were then read on a Cytofluor 4000 fluorescence plate reader. Neurite outgrowth was expressed as percent change from control (vehicle).
(§3) The data are expressed as percent change over the vehicle response. All compounds were screened at 50 nM. The abbreviation NA indicates no change/not active; the abbreviation ND indicates a compound not tested/response not determined.

In test [3] the target is T1, melanocortin MC-4 receptor. Nature of the test: Melanocortin MC-4 Receptor Binding Assay (SPA). The protocol:
Melanocortin MC-4 Receptor Binding Assay Melanocortin [MC-4]-membrane [purchased from Receptor Biology Inc] was coupled to wheat germ agglutinin coated polyvinyl toluene-Scintillation Proximity Assay beads [purchased from Amersham Pharmacia Inc.] for 30 min at 25° C. Into each well of a 96-well Opti plate [purchased from Packard, Calif.], 2.5 μg of membrane and 0.25 mg of beads were mixed in a volume of 100 μL media. […] Test compounds (1.5 μL) at 1 mM in 30% DMSO-50 mM HEPES, pH 7.4 buffer was added to separate wells on the plate. Radioactive ligand ^125I-NDP-melanocyte stimulating hormone [NEN, 2000Ci/mmol] was added to each well (48.5 μL per well, 40 pM final concentration). The plate was then sealed and let stand for 16 hr at 25° C. NDP-Melanocyte stimulating hormone peptide and α-melanocyte stimulating hormone peptide [purchased from Palomar Research Inc, 1 μM] were used as reference inhibitor compounds to define non-specific binding (N). Total binding (T) was defined using 30% DMSO-50 mM HEPES, pH 7.4 buffer. Bound radioactivity for each well (Y), measured at counts per minute (cpm) was measured in a TopCount [Packard, Calif.]. Percent inhibition was calculated as: […] The procedures described above for the melanocortin MC-4 receptor were repeated for the melanocortin MC-3 receptor. Following the procedures described, representative compounds of the present invention were tested for binding in the MC-4 and/or MC-3 assay, as listed in Table 4.

Test [4] concerns Cortical Cells. Briefly: Neurite Cell Outgrowth Assay, cortical cells. The settings on record: Rattus norvegicus; 50 nM; percent change over the vehicle response; NA = no change/not active. The format is cell-based.
Source text: as §1, §2, §3

Test [5] concerns Food-Deprived Rats. Nature of the test: Rodent Feeding: Food Intake in Food-Deprived Rats (MC-4). The format is in vivo, rat. To be noted: Rattus norvegicus. The source says:
Rodent Feeding: Food Intake in Food-Deprived Rats (MC-4)
Male Long-Evans rats (180–200 grams) were housed individually and maintained on a once-a-day feeding schedule (i.e.10 a.m. until 4 p.m.) for five days following quarantine to allow the animals to acclimate to feeding on powdered chow (#5002 PMI Certified Rodent Meal) during the allotted time. The chow was made available in an open jar, anchored in the cage by a wire, with a metal follower covering the food to minimize spillage. Water was available ad-libitum.
Animals were fasted for 18 hours prior to testing. At the end of the fasting period, animals were administered either a test compound or vehicle. Vehicle and test compound were administered either orally (5 mL/kg) 60 minutes prior to the experiment, subcutaneously (1 mL/kg) 30 minutes prior to the experiment, or intraperitoneally (1 mL/kg) 30 minutes prior to the experiment. Test compounds were administered orally as a suspension in aqueous 0.5% methylcellulose-0.4% Tween 80, or intraperitoneally as a solution or suspension in PEG 200; compound concentrations typically ranged from 1 mg/kg to 100 mg/kg, preferably from 10–30 mg/kg. Food intake was measured at 2, 4, and 6 hours after administration by weighing the special jar containing the food before the experiment and at the specified times. Upon completion of the experiment, all animals were given a one-week washout period before re-testing.
Following the procedure described above, select compounds of the present invention were tested to measure the effect on food intake in fasted rats, as listed in Table 5 and 6.

Setting [6] is: ip, 2 h, ip, read-out: Change in Food Intake 0–2 hrs (%).
Setting [7] is: ip, 6 h, ip, read-out: Change in Food Intake 2–6 hrs (%).
[8] abbreviates: po, 2 h, po, read-out: Change in Food Intake 0–2 hrs (%).
[9] abbreviates: po, 6 h, po, read-out: Change in Food Intake 2–6 hrs (%).

T1 sequence (P32245 whole entry): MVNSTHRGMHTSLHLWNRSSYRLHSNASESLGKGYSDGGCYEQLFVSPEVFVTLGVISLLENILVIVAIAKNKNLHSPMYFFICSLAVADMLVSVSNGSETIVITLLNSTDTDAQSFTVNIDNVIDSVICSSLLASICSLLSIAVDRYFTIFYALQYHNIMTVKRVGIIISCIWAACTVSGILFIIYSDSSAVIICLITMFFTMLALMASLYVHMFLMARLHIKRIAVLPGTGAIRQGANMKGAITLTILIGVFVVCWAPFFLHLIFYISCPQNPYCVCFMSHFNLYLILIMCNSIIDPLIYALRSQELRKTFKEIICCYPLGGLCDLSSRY

Take `Cc1ccc(-[n+]2sc(Nc3ccccc3)nc2-c2ccccc2)cc1` [Compound 2]: the IC50 in test [1] was determined as 1.5 µM; in test [3], 234 nM. Besides, the activation at 0.05 µM in test [2] and in test [4] was 18% each time.

For the molecule `Cc1ccc(-[n+]2sc(Nc3ccccc3Cl)nc2-c2ccccc2)cc1` [Compound 7], the IC50 in test [1] came out at 2.2 µM; in test [3], 218 nM. This molecule showed an activation at 0.05 µM in test [4] of 11%.

For `Cc1ccccc1-[n+]1sc(Nc2ccccc2)nc1-c1ccccc1` [Compound 8], the IC50 turned out to be 1.4 µM in test [1] and 201 nM in test [3]. The activation at 0.05 µM in test [4] is 12%.

Consider `COc1ccc(Nc2nc(-c3ccccc3)[n+](-c3ccccc3C)s2)cc1` [Compound 9], for which the IC50 in test [1] stood at 1.1 µM; in test [3], 217 nM.

In the case of `Cc1ccccc1Nc1nc(-c2ccccc2)[n+](-c2ccc(Cl)cc2)s1` [Compound 19], the IC50 in test [1] stood at 3.9 µM; in test [3], 460 nM. In test [2], this molecule displayed an activation at 0.05 µM of 22%.

In the case of `Clc1ccc(Nc2nc(-c3ccccc3)[n+](-c3ccc(Cl)cc3)s2)cc1` [Compound 20], the IC50 in test [1] turned out to be 3.5 µM; in test [3], 636 nM. The activation at 0.05 µM in test [2] is 17%.

As for `Cc1ccccc1Nc1nc(-c2ccccc2)[n+](-c2ccccc2)s1` [Compound 26], the activation at 0.05 µM in test [2] amounted to 16%; in test [4], 47%. The IC50 in test [3] amounted to 63 nM. The change in vivo at 10 mg/kg in test [5] (setting [6]) was -12.7%; in test [5] (setting [7]), -32.3%.

Turning to `Clc1ccc(Nc2nc(-c3ccccc3)[n+](-c3ccccc3)s2)cc1` [Compound 27], the activation at 0.05 µM in test [2] was found to be 17%; in test [4], 52%. Moreover, the IC50 in test [3] came to 89 nM. For the same molecule, the change in vivo at 30 mg/kg in test [5] (setting [6]) is -27.4%; in test [5] (setting [7]) it was -29.1%.

In test [3], `COc1ccc(Nc2nc(-c3ccccc3)[n+](-c3ccccc3OC)s2)cc1` [Compound 29] showed an IC50 of 48 nM. The same molecule had an activation at 0.05 µM in test [4] of 8%. Also, the change in vivo at 10 mg/kg in test [5] (setting [6]) was -62.3%; in test [5] (setting [7]), -70.7%. Besides, the change in vivo at 30 mg/kg was -26.3% in test [5] (setting [8]) and -3.7% in test [5] (setting [9]).

As to `COc1ccccc1-[n+]1sc(Nc2ccccc2C)nc1-c1ccccc1` [Compound 32], the IC50 in test [3] was 48 nM. In test [4], this molecule returned an activation at 0.05 µM of 6%. Moreover, in test [5] (setting [6]), the change in vivo at 10 mg/kg is -29.6%. Further, the change in vivo at 10 mg/kg in test [5] (setting [7]) is -60.2%. Further, in test [5] (setting [8]), the change in vivo at 1 mg/kg was -13.8%, the change in vivo at 3 mg/kg is -11.5%, the change in vivo at 10 mg/kg is -20% and the change in vivo at 30 mg/kg is -12.5%. Further, in test [5] (setting [9]), the change in vivo at 1 mg/kg turned out to be 26%, the change in vivo at 3 mg/kg came out at 31.2%, the change in vivo at 10 mg/kg is -1% and the change in vivo at 30 mg/kg is -15%.

As for `COc1ccccc1-[n+]1sc(Nc2ccccc2Cl)nc1-c1ccccc1` [Compound 34], the IC50 in test [3] is 46 nM. Moreover, the activation at 0.05 µM in test [4] was 22%. The change in vivo at 10 mg/kg in test [5] (setting [6]) was -38%; in test [5] (setting [7]), -72%; in test [5] (setting [8]), -1.3%; in test [5] (setting [9]) it was -6%. The figures for the change in vivo at 30 mg/kg in test [5] (setting [8]) and in test [5] (setting [9]) were -7.5% and 2%, respectively.

Take `Clc1ccccc1Nc1nc(-c2ccccc2)[n+](-c2ccccc2)s1` [Compound 49]: the figures for the activation at 0.05 µM in test [2] and in test [4] were 16% and 51%, respectively. In test [3], this molecule gave an IC50 of 96 nM. Moreover, the figures for the change in vivo at 30 mg/kg in test [5] (setting [6]) and in test [5] (setting [7]) were -20.6% and -21.2%, respectively.

For `COc1ccc(-c2nc(Nc3ccc(C)cc3)s[n+]2-c2ccc(OC)cc2)cc1` [Compound 60], the results for the activation at 0.05 µM in test [2] and in test [4] were 66% and 14%, respectively. The “IC50 MC-4 (nM) (SPA)” value in test [3] is “inactive”.

On to `COc1ccc(-c2nc(Nc3ccccc3C)s[n+]2-c2ccc(OC)cc2)cc1` [Compound 61], for which the values for the activation at 0.05 µM in test [2] and in test [4] were 66% and 17%, respectively. In addition, in test [3], the “IC50 MC-4 (nM) (SPA)” value was “inactive”.

Regarding `COc1ccc(-c2nc(Nc3ccc(Cl)cc3)s[n+]2-c2ccc(OC)cc2)cc1` [Compound 62], the activation at 0.05 µM in test [2] and in test [4] was 13% in each case. Moreover, the “IC50 MC-4 (nM) (SPA)” value in test [3] is “inactive”.

`COc1ccc(-c2nc(Nc3ccccc3Cl)s[n+]2-c2ccc(OC)cc2)cc1` [Compound 63]: the activation at 0.05 µM in test [2] was determined as 20%; in test [4] it was 17%. In test [3], the IC50 was found to be 1000 nM.

On to `COc1ccc(-c2nc(Nc3cccnc3)s[n+]2-c2ccc(OC)cc2)cc1` [Compound 64], for which the activation at 0.05 µM in test [2] is 22%; in test [4], 12%. Moreover, the IC50 in test [3] stood at 1200 nM.
